This passage reports IC50 results from patent EP3623369A1, “NOVEL MORPHOLINYL AMINE COMPOUNDS FOR THE TREATMENT OF AUTOIMMUNE DISEASE” (F. Hoffmann-La Roche AG, priority 2018, dated 2020).

The target of the test is T1, human TLR8 (Homo sapiens, UniProt Q9NR97).
T1 sequence (Q9NR97 27-1041): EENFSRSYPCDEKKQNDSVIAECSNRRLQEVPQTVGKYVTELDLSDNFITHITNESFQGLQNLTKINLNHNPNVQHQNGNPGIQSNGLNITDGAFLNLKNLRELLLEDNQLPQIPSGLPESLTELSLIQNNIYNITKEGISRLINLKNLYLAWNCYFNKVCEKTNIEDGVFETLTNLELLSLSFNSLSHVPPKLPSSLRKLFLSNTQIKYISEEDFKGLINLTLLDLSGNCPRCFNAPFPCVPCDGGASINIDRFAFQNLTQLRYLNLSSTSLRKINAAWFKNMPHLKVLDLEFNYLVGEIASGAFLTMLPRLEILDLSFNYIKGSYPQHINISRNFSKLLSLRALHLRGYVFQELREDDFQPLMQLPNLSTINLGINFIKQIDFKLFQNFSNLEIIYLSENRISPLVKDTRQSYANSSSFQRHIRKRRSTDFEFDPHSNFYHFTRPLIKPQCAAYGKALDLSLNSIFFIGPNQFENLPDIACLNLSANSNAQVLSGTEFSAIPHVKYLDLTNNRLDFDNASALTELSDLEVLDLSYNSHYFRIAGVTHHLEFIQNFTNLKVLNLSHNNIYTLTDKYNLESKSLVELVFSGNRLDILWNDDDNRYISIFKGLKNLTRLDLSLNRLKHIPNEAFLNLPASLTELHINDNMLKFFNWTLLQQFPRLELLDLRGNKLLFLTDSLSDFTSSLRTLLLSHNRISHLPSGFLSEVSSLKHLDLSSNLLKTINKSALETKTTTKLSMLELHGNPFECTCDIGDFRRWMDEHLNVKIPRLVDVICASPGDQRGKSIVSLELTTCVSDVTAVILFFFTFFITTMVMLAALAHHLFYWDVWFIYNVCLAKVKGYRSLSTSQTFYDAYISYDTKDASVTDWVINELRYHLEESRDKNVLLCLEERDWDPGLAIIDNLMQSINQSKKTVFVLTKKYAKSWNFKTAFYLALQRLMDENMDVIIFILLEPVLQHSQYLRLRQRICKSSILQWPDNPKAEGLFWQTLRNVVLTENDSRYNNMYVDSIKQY
Briefly: HEK293-Blue-hTLR-8 cells assay (SEAP reporter, R848 stimulation). Format: cell-based. To be noted: HEK293-Blue-hTLR8 cells, R848, 20 hrs; 0.003 is the lowest tested concentration; read-out: HEK/hTLR8 IC50. On the procedure:
The following tests were carried out in order to determine the activity of the compounds of formula (I) or (Ia) in HEK293-Blue-hTLR-7/8/9 cells assay.
HEK293-Blue-hTLR-8 cells assay:
A stable HEK293-Blue-hTLR-8 cell line was purchased from InvivoGen (Cat.#: hkb-htlr8, San Diego, California, USA). These cells were originally designed for studying the stimulation of human TLR8 by monitoring the activation of NF-κB. A SEAP (secreted embryonic alkaline phosphatase) reporter gene was placed under the control of the IFN-β minimal promoter fused to five NF-κB and AP-1-binding sites. The SEAP was induced by activating NF-κB and AP-1 via stimulating HEK-Blue hTLR8 cells with TLR8 ligands. Therefore the reporter expression was declined by TLR8 antagonist under the stimulation of a ligand, such as R848, for incubation of 20 hrs. The cell culture supernatant SEAP reporter activity was determined using QUANTI-Blue™ kit (Cat.#: rep-qb1, Invivogen, San Diego, Ca, USA) at a wavelength of 640 nm, a detection medium that turns purple or blue in the presence of alkaline phosphatase.
HEK293-Blue-hTLR8 cells were incubated at a density of 250,000∼450,000 cells/mL in a volume of 170 µL in a 96-well plate in Dulbecco's Modified Eagle's medium (DMEM) containing 4.5 g/L glucose, 50 U/mL penicillin, […], […], 2 mM L-glutamine, 10% (v/v) heat-inactivated fetal bovine serum with addition of 20 µL test compound in a serial dilution in the presence of final DMSO at 1% and 10 µL of 60uM R848 in above DMEM, perform incubation under 37 °C in a CO2 incubator for 20 hrs. Then 20 µL of the supernatant from each well was incubated with 180 µL Quanti-blue substrate solution at 37°C for 2 hrs and the absorbance was read at 620∼655 nm using a spectrophotometer. The signalling pathway that TLR8 activation leads to downstream NF-κB activation has been widely accepted, and therefore similar reporter assay was modified for evaluating TLR8 antagonist.

On to `C[C@@H]1CN(c2ccc(C#N)c3ncccc23)C[C@H](CN2Cc3ccc(N4CC5(CCN5)C4)cc3C2)O1` [Example 55, 5-[(2S,6R)-2-[[5-(1,6-diazaspiro[3.3]heptan-6-yl)isoindolin-2-yl]methyl]-6-methyl-morpholin-4-yl]quinoline-8-carbonitrile], for which the IC50 was determined as 7 nM.
The value for `C[C@@H]1CN(c2ccc(C#N)c3ncccc23)C[C@H](CN2Cc3cc(N4CCNCC4)cc(F)c3C2)O1` [Example 59, 5-[(2S,6R)-2-[(4-fluoro-6-piperazin-1-yl-isoindolin-2-yl)methyl]-6-methyl-morpholin-4-yl]quinoline-8-carbonitrile] was under 3 nM.
The value for `C[C@@H]1CN(c2ccc(C#N)c3nccnc23)C[C@H](CN2Cc3cnc(N4CCNCC4)cc3C2)O1` [Example 60, 8-[(2R,6S)-2-methyl-6-[(6-piperazin-1-yl-1,3-dihydropyrrolo[3,4-c]pyridin-2-yl)methyl]morpholin-4-yl]quinoxaline-5-carbonitrile] was under 3 nM; that for `C[C@@H]1CN(c2ccc(C#N)c3ncccc23)C[C@H](CN2Cc3cnc(N4CCNCC4)cc3C2)O1` [Example 61, 5-[(2R,6S)-2-methyl-6-[(6-piperazin-1-yl-1,3-dihydropyrrolo[3,4-c]pyridin-2-yl)methyl]morpholin-4-yl]quinoline-8-carbonitrile] was under 3 nM; that for `C[C@@H]1CN(c2ccc3c(c2)CN(C[C@H]2CN(c4ccc(C#N)c5ncccc45)C[C@@H](C)O2)C3)CCN1` [Example 62, 5-[(2R,6S)-2-methyl-6-[[5-[(3R)-3-methylpiperazin-1-yl]isoindolin-2-yl]methyl]morpholin-4-yl] quinoline-8-carbonitrile] was 5 nM.
The value for `C[C@@H]1CN(c2ccc(C#N)c3ncccc23)C[C@H](CN2Cc3cnc(N4CCNCC4)nc3C2)O1` [Example 63, 5-[(2R,6S)-2-methyl-6-[(2-piperazin-1-yl-5,7-dihydropyrrolo[3,4-d]pyrimidin-6-yl)methyl]morpholin-4-yl]quinoline-8-carbonitrile] was under 3 nM; that for `C[C@@H]1CN(c2ccc(C#N)c3ncccc23)C[C@H](CN2Cc3ccc(N4CCN[C@@H](C)C4)cc3C2)O1` [Example 64, 5-[(2R,6S)-2-methyl-6-[[5-[(3S)-3-methylpiperazin-1-yl]isoindolin-2-yl]methyl]morpholin-4-yl]quinoline-8-carbonitrile] was 6 nM; that for `C[C@@H]1CN(c2ccc3c(c2)CN(C[C@H]2CN(c4ccc(C#N)c5nccnc45)C[C@@H](C)O2)C3)CCN1` [Example 65, 8-[(2R,6S)-2-methyl-6-[[5-[(3R)-3-methylpiperazin-1-yl]isoindolin-2-yl]methyl]morpholin-4-yl] quinoxaline-5-carbonitrile] was under 3 nM.
For `C[C@@H]1CN(c2ccc(C#N)c3nccnc23)C[C@H](CN2Cc3ccc(N4CCN[C@@H](C)C4)cc3C2)O1` [Example 66, 8-[(2R,6S)-2-methyl-6-[[5-[(3S)-3-methylpiperazin-1-yl]isoindolin-2-yl]methyl]morpholin-4-yl]quinoxaline-5-carbonitrile], the IC50 was under 3 nM.
The value for `COC(=O)C1CN(c2ccc3c(c2)CN(C[C@H]2CN(c4ccc(C#N)c5ncccc45)C[C@@H](C)O2)C3)CCN1` (stereo partly drawn) [Example 67, Methyl 4-[2-[[(2S,6R)-4-(8-cyano-5-quinolyl)-6-methyl-morpholin-2-yl]methyl]isoindolin-5-yl] piperazine-2-carboxylate] was 36 nM; that for `C[C@@H]1CN(c2ccc(C#N)c3ncccc23)C[C@H](CN2Cc3cc(N4CCN(C)CC4)cc(F)c3C2)O1` [Example 69, 5-[(2S,6R)-2-[[4-fluoro-6-(4-methylpiperazin-1-yl)isoindolin-2-yl]methyl]-6-methyl-morpholin-4-yl]quinoline-8-carbonitrile] was under 3 nM; that for `C[C@@H]1CN(c2ccc(C#N)c3ncccc23)C[C@H](CN2CCc3cc(N4CCNCC4)ncc3C2)O1` [Example 70, 5-[(2R,6S)-2-methyl-6-[(6-piperazin-1-yl-3,4-dihydro-1H-2,7-naphthyridin-2-yl)methyl]morpholin-4-yl]quinoline-8-carbonitrile] was under 3 nM.
Turning to `C[C@@H]1CN(c2ccc3c(c2)CN(C[C@H]2CN(c4ccc(C#N)c5ncccc45)C[C@@H](C)O2)C3)C[C@H](C)N1` [Example 71, 5-[(2R,6S)-2-methyl-6-[[5-[(3R,5S)-3,5-dimethylpiperazin-1-yl]isoindolin-2-yl]methyl]morpholin-4-yl]quinoline-8-carbonitrile], the IC50 was 6 nM.
The value for `C[C@@H]1CN(c2ccc(C#N)c3ncccc23)C[C@H](CN2Cc3ccc(N4CC5COCC(C4)N5)cc3C2)O1` [Example 72, 5-[(2R,6S)-2-methyl-6-[[5-(3-oxa-7,9-diazabicyclo[3.3.1]nonan-7-yl)isoindolin-2-yl]methyl]morpholin-4-yl]quinoline-8-carbonitrile] was 9 nM; that for `C[C@@H]1CN(c2ccc(C#N)c3ncccc23)C[C@H](CN2Cc3ccc(N4CCNCC4CO)cc3C2)O1` (stereo partly drawn) [Example 73, 5-[(2S,6R)-2-[[5-[2-(hydroxymethyl)piperazin-1-yl]isoindolin-2-yl]methyl]-6-methyl-morpholin-4-yl]quinoline-8-carbonitrile] was 10 nM.
The result for `C[C@@H]1CN(c2ccc(C#N)c3ncccc23)C[C@H](CN2Cc3ccc(CN4CCCCC4)cc3C2)O1` [Example 74, 5-[(2R,6S)-2-methyl-6-[[5-(1-piperidylmethyl)isoindolin-2-yl]methyl]morpholin-4-yl]quinoline-8-carbonitrile] reads under 3 nM; that for `C[C@@H]1CN(c2ccc(C#N)c3ncccc23)C[C@H](CN2Cc3ccc(N4CCNCC4)cc3C(O)C2)O1` (stereo partly drawn) [Example 75, 5-[(2S,6R)-2-[(4-hydroxy-6-piperazin-1-yl-3,4-dihydro-1H-isoquinolin-2-yl)methyl]-6-methyl-morpholin-4-yl]quinoline-8-carbonitrile], 4 nM.
As for `C[C@@H]1CN(c2ccc(C#N)c3ncccc23)C[C@H](CN2Cc3ccc(N4CCNCC4C(F)F)cc3C2)O1` (stereo partly drawn) [Example 76, 5-[(2S,6R)-2-[[5-[2-(difluoromethyl)piperazin-1-yl]isoindolin-2-yl]methyl]-6-methyl-morpholin-4-yl]quinoline-8-carbonitrile], the IC50 is 4 nM.
As for `C[C@@H]1CN(c2ccc(C#N)c3ncccc23)C[C@H](CN2Cc3ccc(N4CC(N)C4)cc3C2)O1` [Example 77, 5-[(2S,6R)-2-[[5-(3-aminoazetidin-1-yl)isoindolin-2-yl]methyl]-6-methyl-morpholin-4-yl]quinoline-8-carbonitrile], the IC50 is 8 nM.
The value for `CC1CNCCN1c1ccc2c(c1)CN(C[C@H]1CN(c3ccc(C#N)c4ncccc34)C[C@@H](C)O1)C2` (stereo partly drawn) [Example 78, 5-[(2R,6S)-2-methyl-6-[[5-(2-methylpiperazin-1-yl)isoindolin-2-yl]methyl]morpholin-4-yl] quinoline-8-carbonitrile] was under 3 nM.
